Assay results as given in patent US11964973B2 (priority 2019, dated 2024).
Where two headings read alike, the source gives them in different places.

Columns and labels:
[1] = test system: Human venous whole blood (IFN-γ); assay: Human whole blood IFN-γ assay; format: cell-based
Protocol: Assay 10: Human Whole Blood IFN-γ Assay
Human venous whole blood (22.5 μL per well), obtained from healthy donors, was pre-treated with compounds for one hour at 37° C. in a humidified 95% air/5% CO2 incubator. The blood was stimulated with 2.5 μL anti-human CD3 and anti-CD28 mAb at a final concentration of 1 μg/mL each for 24 hours at 37° C. IFN-γ in the supernatants was measured using AlphLISA kit (Cat #AL217).

human DGKζ = human DGKζ (Homo sapiens (Human), UniProt Q13574); assay: biochemical; format: biochemical; details: liposome (LIPGLO) assay
Chain of human DGKζ (Q13574 whole entry, looked up): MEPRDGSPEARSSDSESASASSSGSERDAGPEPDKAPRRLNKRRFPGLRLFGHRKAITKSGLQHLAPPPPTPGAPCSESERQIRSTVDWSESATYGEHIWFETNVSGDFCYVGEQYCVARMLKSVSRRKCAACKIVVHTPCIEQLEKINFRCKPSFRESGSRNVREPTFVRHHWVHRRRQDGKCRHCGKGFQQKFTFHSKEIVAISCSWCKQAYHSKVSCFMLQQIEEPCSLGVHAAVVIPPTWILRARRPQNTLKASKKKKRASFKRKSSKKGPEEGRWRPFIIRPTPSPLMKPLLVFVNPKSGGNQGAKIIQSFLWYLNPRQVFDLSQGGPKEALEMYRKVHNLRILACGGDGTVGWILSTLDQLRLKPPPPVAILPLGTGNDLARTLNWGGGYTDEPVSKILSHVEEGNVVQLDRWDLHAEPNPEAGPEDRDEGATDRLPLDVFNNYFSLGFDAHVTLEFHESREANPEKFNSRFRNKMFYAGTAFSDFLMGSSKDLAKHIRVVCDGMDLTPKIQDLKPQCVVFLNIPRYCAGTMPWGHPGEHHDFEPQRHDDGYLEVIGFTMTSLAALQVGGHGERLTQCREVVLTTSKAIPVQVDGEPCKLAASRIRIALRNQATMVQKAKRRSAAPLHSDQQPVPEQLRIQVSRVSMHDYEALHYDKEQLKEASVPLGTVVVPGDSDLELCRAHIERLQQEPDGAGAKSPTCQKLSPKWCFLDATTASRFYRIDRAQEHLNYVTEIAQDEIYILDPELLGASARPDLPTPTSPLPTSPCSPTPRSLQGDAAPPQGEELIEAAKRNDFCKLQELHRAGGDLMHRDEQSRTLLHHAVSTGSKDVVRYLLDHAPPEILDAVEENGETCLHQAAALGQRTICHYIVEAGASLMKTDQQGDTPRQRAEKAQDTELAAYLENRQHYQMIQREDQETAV

Human DGKα(9-727) = Human DGKα(9-727) (Homo sapiens (Human), UniProt P23743); assay: biochemical; details: read-out: DGKα
Chain of Human DGKα(9-727) (P23743 whole entry, looked up): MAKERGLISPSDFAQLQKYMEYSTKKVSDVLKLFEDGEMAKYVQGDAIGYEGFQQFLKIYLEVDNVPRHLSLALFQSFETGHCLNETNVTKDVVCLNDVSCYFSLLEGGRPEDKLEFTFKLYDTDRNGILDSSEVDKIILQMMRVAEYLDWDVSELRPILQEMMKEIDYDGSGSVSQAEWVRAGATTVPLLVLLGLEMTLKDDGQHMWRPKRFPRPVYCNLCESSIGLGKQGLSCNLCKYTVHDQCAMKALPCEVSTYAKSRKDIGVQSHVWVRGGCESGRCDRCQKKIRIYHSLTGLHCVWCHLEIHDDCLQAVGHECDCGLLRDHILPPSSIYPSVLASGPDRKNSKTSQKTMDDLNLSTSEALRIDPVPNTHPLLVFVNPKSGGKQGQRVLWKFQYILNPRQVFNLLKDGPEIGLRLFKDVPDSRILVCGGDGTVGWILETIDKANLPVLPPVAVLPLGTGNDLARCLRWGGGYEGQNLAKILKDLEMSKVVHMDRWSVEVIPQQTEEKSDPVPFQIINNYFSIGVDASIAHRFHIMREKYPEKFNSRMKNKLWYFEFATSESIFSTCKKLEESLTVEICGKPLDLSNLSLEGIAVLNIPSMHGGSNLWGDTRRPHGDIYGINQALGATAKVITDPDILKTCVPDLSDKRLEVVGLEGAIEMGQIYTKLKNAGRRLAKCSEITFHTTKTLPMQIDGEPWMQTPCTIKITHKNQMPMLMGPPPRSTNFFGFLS

[2] = test system: human venous whole blood, CD8 positive population (pERK); assay: DGK human whole blood pERK assay; format: cell-based; details: read-out: DGK HWB pERK IC50
In short: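 Heparinized whole blood from healthy donors preincubated with compound 1 hour at 37° C. Stimulation used anti-CD3 at 1 μg/mL final plus cross-linking goat anti-mouse IgG for 15 minutes. Flow cytometry scored percentage pERK-positive cells among CD8-positive cells.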

DGKα = DGKα (Homo sapiens (Human), UniProt P23743); assay: biochemical; format: biochemical; details: liposome (LIPGLO) assay; read-out: DGKα LIPGLO IC50
Chain of DGKα (P23743 whole entry, looked up): as above

[3] = Homo sapiens, human whole blood IFN-γ, read-out: INFg Whole Blood
[4] = Table A, liposome (LIPGLO) assay
[5] = Homo sapiens, 24 h, human whole blood, anti-CD3 plus anti-CD28, 24 hours, read-out: INFg Whole Blood Normalized Agonist EC50
[6] = human whole blood, CD8 positive population
[7] = human whole blood, anti-CD3 plus anti-CD28, 24 hours, read-out: INFg Whole Blood Normalized Agonist EC50
[8] = human whole blood IFN-γ, read-out: INFg Whole Blood
[9] = read-out: INFg Whole Blood Normalized Agonist EC50, human whole blood, anti-CD3 plus anti-CD28, 24 hours

Row | Compound | IC50 (human DGKζ; Table A, read-out: DGKζ) | IC50 (Human DGKα(9-727); [4]) | IC50 [2, 6] | IC50 (DGKα) | IC50 (human DGKζ; read-out: DGKζ LIPGLO IC50) | other results
1 | Cn1c(=O)cc(N2CC[C@H](Oc3cccc(C(F)(F)F)c3)[C@@H](O)C2)c2nc(C#N)ccc21 (racemic) [Example 259, (±)-trans-8-(3-hydroxy-4-(3-(trifluoromethyl)phenoxy)piperidin-1-yl)-5-methyl-6-oxo-5,6-dihydro-1,5-naphthyridine-2-carbonitrile] | 150 µM | 1.1 µM | – | – | – | EC50 [1, 3]: 20 µM
2 | Cc1nccc(OC2CCN(c3cc(=O)n(C)c4ccc(C#N)nc34)CC2)n1 [Example 72, 5-methyl-8-(4-((2-methylpyrimidin-4-yl)oxy)piperidin-1-yl)-6-oxo-5,6-dihydro-1,5-naphthyridine-2-carbonitrile] | – | – | 20 µM | 4.2 µM | 39 µM | EC50 [1, 5]: 20 µM
3 | CO[C@@H]1CN(c2nc(=O)n(C)c3ccc(C#N)nc23)CC[C@H]1Oc1cccc(C(F)(F)F)c1 (single isomer, unassigned) [Example 276] | 2 µM | 1 µM | – | – | – | –
4 | CC1CN(c2cc(=O)n(C)c3ccc(C#N)nc23)CCC1N(C)C(=O)c1ccc(F)cc1 (single isomer, unassigned) [Example 287, N-(1-(6-Cyano-1-methyl-2-oxo-1,2-dihydro-1,5-naphthyridin-4-yl)-3-methylpiperidin-4-yl)-4-fluoro-N-methylbenzamide] | 7.4 µM | – | – | – | – | IC50 (Human DGKα(9-727)): 3.2 µM
5 | C[C@H]1CN(c2cc(=O)n(C)c3ccc(C#N)nc23)[C@@H](C)CC1N(C)c1ccc(C(F)(F)F)cc1 (single isomer, unassigned) [Example 319] | 130 µM | 61 µM | – | – | – | –
6 | CC[C@@H]1CN(c2cc(=O)n(C)c3ccc(C#N)nc23)CC[C@@H]1Oc1cccc(C(F)(F)F)c1 [Example 168] | – | – | 3.7 µM | 1 µM | 0.89 µM | EC50 [1, 7]: 1.6 µM
7 | Cn1c(=O)nc(N2CC[C@@H](Oc3cccc(C(F)(F)F)c3)[C@H](O)C2)c2nc(Cl)ccc21 (racemic) [Example 272, (+/−)-trans-6-chloro-4-(3-hydroxy-4-(3-(trifluoromethyl)phenoxy)piperidin-1-yl)-1-methylpyrido[3,2-d]pyrimidin-2(1H)-one] | 24 µM | 19 µM | – | – | – | EC50 [1, 8]: 16 µM
8 | CCO[C@@H]1CN(c2cc(=O)n(C)c3ccc(C#N)nc23)CC[C@H]1Oc1cccc(C(F)(F)F)c1 [Example 264, 8-((3R,4R)-3-ethoxy-4-(3-(trifluoromethyl)phenoxy)piperidin-1-yl)-5-methyl-6-oxo-5,6-dihydro-1,5-naphthyridine-2-carbonitrile] | 17 µM | 4 µM | – | – | – | EC50 [1, 8]: 6.5 µM
9 | CC(C)Oc1ccc(O[C@H]2CCN(c3cc(=O)n(C)c4ccc(C#N)nc34)C[C@@H]2O)nc1 (single isomer, unassigned) [Example 268, (±)-trans-8-(3-hydroxy-4-((5-isopropoxypyridin-2-yl)oxy)piperidin-1-yl)-5-methyl-6-oxo-5,6-dihydro-1,5-naphthyridine-2-carbonitrile] | 17 µM | 1.3 µM | – | – | – | –
10 | CC(C)c1ccc(O[C@H]2CCN(c3cc(=O)n(C)c4ccc(C#N)nc34)C[C@H]2C)cc1 (single isomer, unassigned) [Example 178] | – | – | 2.3 µM | 0.062 µM | 0.53 µM | EC50 [1, 7]: 4.6 µM
11 | COc1ccc(NC2C[C@H](C)N(c3cc(=O)n(C)c4ccc(C#N)nc34)C[C@H]2C)nc1 (single isomer, unassigned) [Example 281] | 2.8 µM | 2.7 µM | – | – | – | EC50 [1, 8]: 9.8 µM
12 | CC[C@@H]1CN(c2cc(=O)n(C)c3ccc(C#N)nc23)[C@@H](C)C[C@@H]1Oc1cccc(C(F)(F)F)c1 [Example 308, 8-((2S,4S,5R)-5-ethyl-2-methyl-4-(3-(trifluoromethyl)phenoxy)piperidin-1-yl)-5-methyl-6-oxo-5,6-dihydro-1,5-naphthyridine-2-carbonitrile] | 3.1 µM | 4.3 µM | – | – | – | –
13 | Cn1c(=O)nc(N2CC[C@@H](Oc3cccc(C(F)(F)F)c3)[C@H](O)C2)c2nc(Cl)ccc21 (racemic) [Example 271, (+/−)-trans-6-chloro-4-(3-hydroxy-4-(3-(trifluoromethyl)phenoxy)piperidin-1-yl)-1-methylpyrido[3,2-d]pyrimidin-2(1H)-one] | 28 µM | 10 µM | – | – | – | EC50 [1, 3]: 20 µM
14 | CC(C)Oc1ccc(OC2CCN(c3cc(=O)n(C)c4ccc(C#N)nc34)CC2)nc1 [Example 66, 8-(4-((5-isopropoxypyridin-2-yl)oxy)piperidin-1-yl)-5-methyl-6-oxo-5,6-dihydro-1,5-naphthyridine-2-carbonitrile] | – | – | 2.7 µM | 1.2 µM | 4 µM | EC50 [1, 5]: 0.82 µM
15 | CC(C)c1ccc(O[C@@H]2CCN(c3cc(=O)n(C)c4ccc(C#N)nc34)C[C@H]2C)cc1 [Example 94, 8-((3R,4R)-4-(4-isopropylphenoxy)-3-methylpiperidin-1-yl)-5-methyl-6-oxo-5,6-dihydro-1,5-naphthyridine-2-carbonitrile] | – | – | 3.9 µM | 0.08 µM | 6.1 µM | EC50 [1, 5]: 1.1 µM
16 | Cn1c(=O)cc(N2CC[C@H](Oc3cccc(C(F)(F)F)c3)[C@@H](O)C2)c2nc(C#N)ccc21 (racemic) [Example 260, (±)-trans-8-(3-hydroxy-4-(3-(trifluoromethyl)phenoxy)piperidin-1-yl)-5-methyl-6-oxo-5,6-dihydro-1,5-naphthyridine-2-carbonitrile] | 140 µM | – | – | – | – | IC50 (Human DGKα(9-727)): 1.9 µM
17 | Cn1c(=O)nc(N2CC[C@@H](Oc3cccc(C(F)(F)F)c3)[C@H](O)C2)c2nc(C#N)ccc21 (single isomer, unassigned) [Example 274, (+/−)-trans-4-(3-hydroxy-4-(3-(trifluoromethyl)phenoxy)piperidin-1-yl)-1-methyl-2-oxo-1,2-dihydropyrido[3,2-d]pyrimidine-6-carbonitrile] | 15 µM | 14 µM | – | – | – | EC50 [1, 3]: 8.2 µM
18 | CO[C@H]1CN(c2cc(=O)n(C)c3ccc(C#N)nc23)CC[C@@H]1Oc1ccc(OC(C)C)cn1 (single isomer, unassigned) [Example 270, (±)-trans-8-(4-((5-isopropoxypyridin-2-yl)oxy)-3-methoxypiperidin-1-yl)-5-methyl-6-oxo-5,6-dihydro-1,5-naphthyridine-2-carbonitrile] | 12 µM | 2.4 µM | – | – | – | –
19 | CCC(C)(C)c1ccc(O[C@H]2CCN(c3cc(=O)n(C)c4ccc(C#N)nc34)C[C@H]2C)cc1 (single isomer, unassigned) [Example 170] | – | – | 0.54 µM | 0.37 µM | 1.1 µM | EC50 [1, 7]: 0.86 µM
20 | Cn1c(=O)cc(N2CCC(Oc3ccnc(C(F)(F)F)n3)CC2)c2nc(C#N)ccc21 [Example 76, 5-methyl-6-oxo-8-(4-((2-(trifluoromethyl)pyrimidin-4-yl)oxy)piperidin-1-yl)-5,6-dihydro-1,5-naphthyridine-2-carbonitrile] | – | – | 20 µM | 11 µM | 34 µM | EC50 [1, 5]: 20 µM
21 | CO[C@@H]1CN(c2nc(=O)n(C)c3ccc(C#N)nc23)CC[C@H]1Oc1cccc(C(F)(F)F)c1 (single isomer, unassigned) [Example 277] | 3.9 µM | 4.9 µM | – | – | – | –
22 | CO[C@@H]1CN(c2cc(=O)n(C)c3ccc(C#N)nc23)CC[C@H]1Oc1cccc(C(F)(F)F)c1 (single isomer, unassigned) [Example 262, (±)-trans-8-(3-methoxy-4-(3-(trifluoromethyl)phenoxy)piperidin-1-yl)-5-methyl-6-oxo-5,6-dihydro-1,5-naphthyridine-2-carbonitrile] | 15 µM | 3.7 µM | – | – | – | –
23 | CC[C@@H]1CN(c2cc(=O)n(C)c3ccc(C#N)nc23)CC[C@H]1Oc1cccc(C(C)C)c1 (single isomer, unassigned) [Example 139] | – | – | – | 0.1 µM | 1.7 µM | EC50 [1, 9]: 1.5 µM; IC50 ([2]; Homo sapiens, CD8 positive): 5.3 µM
24 | Cc1cc(OC2CCN(c3cc(=O)n(C)c4ccc(C#N)nc34)CC2)nc(C(C)C)n1 [Example 78, 8-(4-((2-isopropyl-6-methylpyrimidin-4-yl)oxy)piperidin-1-yl)-5-methyl-6-oxo-5,6-dihydro-1,5-naphthyridine-2-carbonitrile] | – | – | 20 µM | 0.81 µM | 16 µM | –
25 | CC[C@@H]1CN(c2cc(=O)n(C)c3ccc(C#N)nc23)CC[C@@H]1Oc1cccc(C(C)(C)C)c1 [Example 167, 8-((3R,4S)-4-(3-(tert-butyl)phenoxy)-3-ethylpiperidin-1-yl)-5-methyl-6-oxo-5,6-dihydro-1,5-naphthyridine-2-carbonitrile] | – | – | – | 0.12 µM | 1 µM | EC50 [1, 9]: 1.6 µM; IC50 ([2]; Homo sapiens, CD8 positive): 2 µM
